# Source: paper PMC8000185 (International Journal of Molecular Sciences, 2021)
# Legend:
# [1] = biological target: T1, NHE1 (Homo sapiens, UniProt P19634); assay: Plate-based NHE1 inhibition assay (BCECF pHi recovery, 96-well plate reader); format: cell-based; conditions: MDA-MB-231 cells, plate reader
# T1 construct: endogenous in cells; host or cells: MDA-MB-231
# Procedure: To perform NHE1 screening with increased throughput, we adapted the conventional cuvette-based NHE1 activity assay to a simple new 96-well plate format using MDA-MB-231 cells that were compatible with common laboratory fluorescence plate readers (see Section 4 for details).
# Culture media were removed and replaced with 200 µL 0.2% FBS-containing media with incubation for 3–4 h to stimulate NHE1 activity, followed by incubation for 30 min in the presence of 5 µM 2′,7′-bis(carboxyethyl)-5(6)-carboxyfluorescein-acetoxymethyl ester (BCECF-AM, cat #ab143463, Abcam, Cambridge, United Kingdom). Cells were then washed with 100 µL/well Na^+-free acid-load buffer: 10 mM NH4Cl, 1.8 mM CaCl2, 90 mM N-methyl-D-glucamine (from 1 M stock titrated to pH 7.4 with HCl), 5 mM glucose, 15 mM HEPES, 5 mM KCl, 1 mM MgCl2 (pH 7.5, adjusted with KOH), and incubated at 37 °C for a further 30 min. Acid-load buffer was removed and replaced with Na^+-containing assay buffer: 100 mM NaCl, 1.8 mM CaCl2, 5 mM glucose, 15 mM HEPES, 5 mM KCl, 1 mM MgCl2 containing serial dilution of each compound or DMSO vehicle, and changes in fluorescence were read immediately using a BMG Labtech POLARstar OMEGA (BMG Labtech GmbH, Offenburg, Germany) plate reader according to the parameters in Table S1. Compounds were tested at n = 3 technical replicates per concentration per plate. BCECF-AM-free cells were treated with matched concentrations of each compound to correct for intrinsic fluorescence. DMSO was present in all wells at a final concentration of 1% v/v. Inhibition of NHE1-mediated pHi recovery was determined by ratiometric calculation of the change in blank-corrected pH-sensitive fluorescence divided by the isobestic fluorescence for each well over time. […] (0% activity) controls present on each plate. IC50 values were determined through fitting of Log-10 transformed data using the “log(inhibitor) versus normalised response–variable slope” non-linear function in GraphPad PRISM v8.0 software package (GraphPad Software, San Diego, CA, USA).
# [2] = biological target: T2, urokinase from human kidney cells (human uPA) (Homo sapiens, UniProt P00749); assay: uPA inhibition assay (fluorescence-based, purified enzyme); format: biochemical; conditions: for IC50: purified enzyme, Z-Gly-Gly-Arg-AMC substrate, number in parentheses after value, read-out: uPA IC50
# T2 construct: low molecular weight active human uPA; purchased Sigma-Aldrich U4010; host or cells: human kidney cells
# [3] = Cell viability (cytotoxicity) assay; format: cell-based; conditions: human, MDA-MB-231 cells, 48 h treatment
# Procedure: On the day of treatment, respective compounds were serially diluted using a semi-logarithmic dilution series from 20 mM stocks in neat DMSO into DMEM-high glucose media (10% v/v FBS) in a separate 96-well plate and under sterile conditions. Thereafter, 10 μL of the diluted compounds at their respective concentrations (n = 4) were added to the cells. […] Vehicle media blanks or drug blanks were also included to correct for inherent colour of the compounds and phenol red-containing media. Following 48 h treatment, 20 μL CellTitre 96® Aqueous One Solution Cell Proliferation Assay (Promega, Madison, USA) was added to each well, plates were incubated for 2 h, and absorbance was measured at 490 nm using a SpectraMax Plus 384-well plate reader (Molecular Devices LLC, San Jose, USA) and Softmax PRO v7.0 software. Blank-corrected data were analysed and graphed using GraphPad PRISM v8.0 software (GraphPad Software, San Diego, CA USA).
# T1 sequence (P19634 whole entry): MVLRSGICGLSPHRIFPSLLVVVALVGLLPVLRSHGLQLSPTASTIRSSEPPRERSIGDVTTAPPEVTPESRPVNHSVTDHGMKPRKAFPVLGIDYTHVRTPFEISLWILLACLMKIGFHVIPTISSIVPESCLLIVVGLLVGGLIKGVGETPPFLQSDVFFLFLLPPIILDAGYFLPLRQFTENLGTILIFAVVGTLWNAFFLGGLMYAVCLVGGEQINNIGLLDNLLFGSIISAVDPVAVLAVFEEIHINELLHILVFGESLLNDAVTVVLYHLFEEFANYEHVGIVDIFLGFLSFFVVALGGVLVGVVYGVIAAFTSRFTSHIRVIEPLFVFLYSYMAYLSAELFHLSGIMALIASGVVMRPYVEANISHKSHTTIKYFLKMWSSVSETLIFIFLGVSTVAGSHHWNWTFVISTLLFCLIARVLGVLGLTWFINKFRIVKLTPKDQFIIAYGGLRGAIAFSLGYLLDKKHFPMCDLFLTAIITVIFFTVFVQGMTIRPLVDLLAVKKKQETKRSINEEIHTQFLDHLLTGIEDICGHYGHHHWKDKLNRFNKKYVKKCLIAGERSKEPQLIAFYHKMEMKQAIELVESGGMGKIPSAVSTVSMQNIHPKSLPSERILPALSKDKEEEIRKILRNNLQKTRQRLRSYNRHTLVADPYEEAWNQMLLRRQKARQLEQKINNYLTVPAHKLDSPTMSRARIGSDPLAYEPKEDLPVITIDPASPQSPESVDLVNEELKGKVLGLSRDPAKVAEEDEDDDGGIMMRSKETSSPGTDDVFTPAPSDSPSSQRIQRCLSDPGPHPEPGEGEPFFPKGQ
SMILES,inhibition at 1 µM [1],inhibition at 10 µM ([1]; 10 μM),IC50 [2],IC50 at 48 h [3],higher uPA activity than its HMA congener 15 [2],decrease in uPA activity on opening the 5-alkylamino ring ([2]; within the 6-(2-benzofuranyl) series),NHE1 Inhibition (%) 10 μM ([1]; 10 μM)
N=C(N)NC(=O)c1nc(-c2cnc(N)nc2)c(N2CCCCCC2)nc1N [compound 27],0%,11%,0.034 ± 0.005 µM,> 100 µM,–,–,–
N=C(N)NC(=O)c1nc(-c2cc3ncccc3o2)c(N2CCCC2)nc1N [compound 38],0%,81%,0.113 ± 0.004 µM,> 100 µM,–,–,–
COc1ccc2oc(-c3nc(C(=O)NC(=N)N)c(N)nc3N)cc2c1 [compound 14],4%,36%,0.467 ± 0.022 µM,> 100 µM,> 3 fold,–,–
N=C(N)NC(=O)c1nc(-c2cncnc2)c(N2CCOCC2)nc1N [compound 41],77%,87%,0.563 ± 0.029 µM,> 100 µM,–,–,–
N=C(N)NC(=O)c1nc(-c2cc3ccccc3o2)c(N2CCCCCC2)nc1N [compound 5],39%,72%,0.297 ± 0.016 µM,19.1 µM,–,–,–
N=C(N)NC(=O)c1nc(-c2ccc(C(F)(F)F)cc2)c(N2CCCCCC2)nc1N [compound 23],77%,100%,6.91 µM,14.7 µM,–,–,–
N=C(N)NC(=O)c1nc(-c2ccc(C(F)(F)F)cc2)c(C2CC2)nc1N [compound 40],28%,80%,16.2 µM,26.6 µM,–,–,–
N=C(N)NC(=O)c1nc(-c2cc3cc(F)ccc3o2)c(N2CCCCCC2)nc1N [compound 9],22%,100%,0.187 ± 0.017 µM,9.6 µM,–,–,–
N=C(N)NC(=O)c1nc(-c2cc3cnccc3o2)c(N2CCCCCC2)nc1N [compound 19],23%,100%,0.164 µM,69.4 µM,–,–,–
Cc1ccc2oc(-c3nc(C(=O)NC(=N)N)c(N)nc3N)cc2c1 [compound 6],0%,71%,1.05 µM,11.7 µM,–,–,–
N=C(N)NC(=O)c1nc(-c2cc3ncccc3o2)c(N2CCCCCC2)nc1N [compound 21],2%,100%,0.038 µM,43.1 µM,–,–,–
N=C(N)NC(=O)c1nc(-c2cc3ccccc3o2)c(N2CCOCC2)nc1N [compound 36],29%,81%,0.797 ± 0.015 µM,36.7 µM,–,–,–
COc1ncc(-c2nc(C(=O)NC(=N)N)c(N)nc2N2CCCOCC2)cn1 [compound 43],0%,16%,0.267 ± 0.014 µM,> 100 µM,–,–,–
N=C(N)NC(=O)c1nc(-c2cc3cnccc3o2)c(N)nc1N [compound 18],–,–,1.01 µM,26.4 µM,–,–,–
N=C(N)NC(=O)c1nc(-c2cc3cc(Br)ccc3o2)c(N2CCCCCC2)nc1N [compound 13],0%,0%,2.56 µM,6.2 µM,–,–,–
CCN(c1nc(N)c(C(=O)NC(=N)N)nc1-c1cc2ccccc2o1)C(C)C [compound 33],8%,41%,1.6 µM,17.2 µM,–,> 5 fold,–
N=C(N)NC(=O)c1nc(-c2cc3ccccc3o2)c(N2CCCOCC2)nc1N [compound 37],55%,96%,0.149 ± 0.017 µM,54 µM,–,–,–
N=C(N)NC(=O)c1nc(-c2cnc(NCCO)nc2)c(N2CCCCCC2)nc1N [compound 28],0%,15%,0.067 ± 0.003 µM,> 100 µM,–,–,–
N=C(N)NC(=O)c1nc(-c2cc3cc(Br)ccc3o2)c(N)nc1N [compound 12],0%,97%,5.93 µM,32.1 µM,–,–,–
N=C(N)NC(=O)c1nc(-c2cc3cc(F)ccc3o2)c(N)nc1N [compound 8],0%,75%,0.954 ± 0.072 µM,10.6 µM,–,–,–
COc1ccc2oc(-c3nc(C(=O)NC(=N)N)c(N)nc3N3CCCCCC3)cc2c1 [compound 15],34%,91%,1.69 µM,25.1 µM,–,–,–
N=C(N)NC(=O)c1nc(-c2cncnc2)c(N2CCCOCC2)nc1N [compound 42],39%,96%,0.78 ± 0.033 µM,> 100 µM,–,–,–
N=C(N)NC(=O)c1nc(-c2cc3ccccc3o2)c(N2CCCC2)nc1N [compound 31],18%,85%,0.546 ± 0.024 µM,22.7 µM,–,–,–
Cc1ccc2oc(-c3nc(C(=O)NC(=N)N)c(N)nc3N3CCCCCC3)cc2c1 [compound 7],5%,100%,1.18 µM,8.8 µM,–,–,–
N=C(N)NC(=O)c1nc(-c2cc3cc(Cl)ccc3o2)c(N)nc1N [compound 10],0%,62%,0.94 ± 0.059 µM,4.4 µM,–,–,–
N=C(N)NC(=O)c1nc(-c2cc3ccccc3o2)c(NC2CCCC2)nc1N [compound 34],0%,0%,5.87 µM,6.2 µM,–,–,–
"N=C(N)NC(=O)c1nc(Cl)c(N2CCCCCC2)nc1N [HMA, 5-(N,N-hexamethylene)amiloride, reference compound]",66%,100%,2.21 µM,32.1 µM,–,–,completely blocking activity
COc1ncc(-c2nc(C(=O)NC(=N)N)c(N)nc2N)cn1 [compound 25],0%,18%,0.333 ± 0.022 µM,> 100 µM,–,–,–
N=C(N)NC(=O)c1nc(-c2ccc(C(F)(F)F)cc2)c(N)nc1N [compound 22],–,–,5.1 µM,82.4 µM,–,–,–
N=C(N)NC(=O)c1nc(I)c(N)nc1N [compound 3],36%,86%,1.58 µM,> 100 µM,–,–,–
